In patent publication US12281057B2 (VERTEX PHARMACEUTICALS INCORPORATED, priority 2017, dated 2025):

biological target: truncated form of human NaV 1.8 with full channel activity (Homo sapiens, UniProt Q9Y5Y9); experiment: E-VIPR Assay Method A for detecting and measuring Nav inhibition (HEK cells, membrane potential FRET dyes, electrical stimulation); assay type: cell-based; conditions: HEK cells expressing human NaV 1.8, HS (human serum) in compound loading buffer, 11 point dose response, top dose 3 μM, Table 20A, read-out: Nav 1.8 MedChem Optical Assay EVIPR Assay Method A HS IC50
Sequence (Q9Y5Y9 126-1722 limits assumed): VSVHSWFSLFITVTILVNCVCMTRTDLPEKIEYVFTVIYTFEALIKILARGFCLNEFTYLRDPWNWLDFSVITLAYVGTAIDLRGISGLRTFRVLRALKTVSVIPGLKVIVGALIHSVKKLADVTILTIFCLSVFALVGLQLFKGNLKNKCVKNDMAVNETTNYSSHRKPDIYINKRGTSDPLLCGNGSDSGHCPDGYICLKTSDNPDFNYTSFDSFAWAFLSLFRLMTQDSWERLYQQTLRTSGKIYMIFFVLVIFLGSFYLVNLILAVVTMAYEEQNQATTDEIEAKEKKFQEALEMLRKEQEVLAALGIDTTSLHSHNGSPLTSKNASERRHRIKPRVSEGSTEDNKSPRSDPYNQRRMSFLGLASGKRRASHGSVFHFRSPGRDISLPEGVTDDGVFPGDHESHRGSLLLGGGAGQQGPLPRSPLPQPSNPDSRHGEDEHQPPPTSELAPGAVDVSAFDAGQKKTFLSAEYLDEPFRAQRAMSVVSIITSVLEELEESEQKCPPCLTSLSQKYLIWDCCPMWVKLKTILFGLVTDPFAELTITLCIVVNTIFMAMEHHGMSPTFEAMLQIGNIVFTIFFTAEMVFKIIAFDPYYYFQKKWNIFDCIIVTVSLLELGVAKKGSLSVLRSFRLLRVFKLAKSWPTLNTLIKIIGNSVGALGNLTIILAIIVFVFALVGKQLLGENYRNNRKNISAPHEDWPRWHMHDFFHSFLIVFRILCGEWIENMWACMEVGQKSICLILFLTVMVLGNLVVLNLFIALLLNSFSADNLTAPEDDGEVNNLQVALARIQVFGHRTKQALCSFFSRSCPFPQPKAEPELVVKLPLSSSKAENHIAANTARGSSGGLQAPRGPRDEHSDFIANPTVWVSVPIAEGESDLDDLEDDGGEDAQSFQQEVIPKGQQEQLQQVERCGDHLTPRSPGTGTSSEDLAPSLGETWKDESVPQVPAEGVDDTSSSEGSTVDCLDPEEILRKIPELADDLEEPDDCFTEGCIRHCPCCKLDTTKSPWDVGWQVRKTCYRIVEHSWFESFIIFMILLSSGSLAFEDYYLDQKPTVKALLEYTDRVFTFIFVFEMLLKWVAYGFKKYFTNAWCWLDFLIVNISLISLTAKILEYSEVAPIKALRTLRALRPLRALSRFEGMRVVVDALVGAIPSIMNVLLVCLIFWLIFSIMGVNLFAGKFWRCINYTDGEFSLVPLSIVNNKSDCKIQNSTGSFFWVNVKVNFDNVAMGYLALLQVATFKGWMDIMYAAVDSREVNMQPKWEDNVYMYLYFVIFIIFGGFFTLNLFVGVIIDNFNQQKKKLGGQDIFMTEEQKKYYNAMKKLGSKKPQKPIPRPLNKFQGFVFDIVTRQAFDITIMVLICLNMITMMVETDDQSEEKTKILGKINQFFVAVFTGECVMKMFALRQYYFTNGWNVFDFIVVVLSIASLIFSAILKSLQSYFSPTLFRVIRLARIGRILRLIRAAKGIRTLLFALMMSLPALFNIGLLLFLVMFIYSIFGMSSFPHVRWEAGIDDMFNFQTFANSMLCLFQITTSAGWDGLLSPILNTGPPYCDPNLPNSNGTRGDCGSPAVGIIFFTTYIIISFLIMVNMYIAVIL
Source text: E-VIPR Assay Method A for Detecting and Measuring Nav Inhibition Properties Sodium ion channels are voltage-dependent proteins that can be activated by inducing membrane voltage changes by applying electric fields. The electrical stimulation instrument and methods of use, referred to as E-VIPR, are described in International Publication No. WO 2002/008748 A3 and C.-J. Huang et al. Characterization of voltage-gated sodium channel blockers by electrical stimulation and fluorescence detection of membrane potential, 24 Nature Biotech. 439-46 (2006), both of which are incorporated by reference in their entirety. The instrument comprises a microtiter plate handler, an optical system for exciting the coumarin dye while simultaneously recording the coumarin and oxonol emissions, a waveform generator, a current- or voltage-controlled amplifier, and parallel electrode pairs that are inserted into assay plate wells. Under integrated computer control, this instrument passes user-programmed electrical stimulus protocols to cells within the wells of the microtiter plate. […] Sigma #F4135), 1% NEAA (Non-Essential Amino Acids, Life Tech #11140), 1% HEPES (Life Tech #15630), 1% Pen-Strep (Penicillin-Streptomycin; […] Cells were expanded in vented cap flasks, with 95% humidity and 5% CO2. Reagents and Stock Solutions: • 100 mg/mL Pluronic F-127 (Sigma #P2443), in dry DMSO • Compound Plates: […] 5% KIR 2.1 Bacmam virus (produced in-house), prepared as described in Section 3.3 of J. A. […] The solution was made by adding 10% Pluronic F127 stock equal to combined volumes of CC2-DMPE and DiSBAC6(3). The order of preparation was first mix Pluronic and CC2-DMPE, then add DiSBAC6(3), then while vortexing add Bath1/β-Cyclodextrin. […] Assay Protocol: […] Final DMSO concentration for all wells in the assay was 0.625% (0.75% DMSO was supplemented to the Compound Loading Buffer for a final DMSO concentration of 0.625%). […] 3) Cell plates were prepared. On the day of the assay, the media was aspirated, and the cells were washed three times with 80 μL of Bath-1 buffer, maintaining 25 μL residual volume in each well. 4) 25 μL per well of Hexyl Dye Solution was dispensed into the cell plates. The cells were incubated for 20 minutes at room temp or ambient conditions in darkness. 5) 80 μL per well of Compound Loading Buffer was dispensed into compound plates. 6) The cell plates were washed three times with 80 μL per well of Bath-1 Buffer, leaving 25 µL of residual volume. Then 25 uL per well from compound plate was transferred to each cell plate. The mixture was incubated for 30 minutes at room temp/ambient conditions. 7) The plate was read on E-VIPR using the current-controlled amplifier to deliver stimulation wave pulses using the following protocol: 1.25 Amps, 2.5 ms pulse width biphasic waveform, 10 Hz for 10 seconds at a scan rate of 200 Hz. A pre-stimulus recording was performed for 0.5 seconds to obtain the un-stimulated intensities baseline. The stimulatory waveform was followed by 0.5 seconds of post-stimulation recording to examine the relaxation to the resting state. Data Analysis: Data were analyzed and reported as normalized ratios of emission intensities measured in the 460 nm and 580 nm channels. The response as a function of time was reported as the ratios obtained using the following formula: […] The data were further reduced by calculating the initial (Ri) and final (Rf) ratios. These were the average ratio values during part or all of the pre-stimulation period and during sample points during the stimulation period. The fluorescence ratio (Rf/Ri) was then calculated and reported as a function of time. Control responses were obtained by performing assays in the presence of the positive control, and in the absence of pharmacological agents (DMSO vehicle negative control). Responses to the negative (N) and positive (P) controls were calculated as above. The compound antagonist % activity A was then defined as: [formula] where X is the ratio response of the test compound. […]

Compound	IC50
COc1cc(OC(F)(F)F)ccc1Oc1cc(C2CC2)ncc1C(=O)Nc1ccc(F)c(C(N)=O)c1 [Compound 43, N-(3-Carbamoyl-4-fluoro-phenyl)-6-cyclopropyl-4-[2-methoxy-4-(trifluoromethoxy)phenoxy]pyridine-3-carboxamide]	0.04 µM
COc1cc(OC(F)(F)F)ccc1Oc1ccc(C(F)(F)F)c(F)c1C(=O)Nc1cccc(C(N)=O)c1 [Compound 44, N-(3-carbamoylphenyl)-2-fluoro-6-[2-methoxy-4-(trifluoromethoxy)phenoxy]-3-(trifluoromethyl)benzamide]	0.005 µM
COc1cc(OC(F)(F)F)ccc1Oc1cnc(C(F)(F)F)c(F)c1C(=O)Nc1ccc(F)c(C(N)=O)c1 [Compound 45, N-(3-carbamoyl-4-fluoro-phenyl)-3-fluoro-5-[2-methoxy-4-(trifluoromethoxy)phenoxy]-2-(trifluoromethyl)pyridine-4-carboxamide]	0.001 µM
COc1cc(OC(F)(F)F)ccc1Oc1cnc(C2CC2)c(F)c1C(=O)Nc1ccc(F)c(C(N)=O)c1 [Compound 46, N-(3-Carbamoyl-4-fluoro-phenyl)-2-cyclopropyl-3-fluoro-5-[2-methoxy-4-(trifluoromethoxy)phenoxy]pyridine-4-carboxamide]	1.2 µM
NC(=O)c1cccc(NC(=O)c2c(Oc3ccc(OC(F)(F)F)cc3)ccc(C(F)(F)F)c2F)c1 [Compound 47, N-(3-carbamoylphenyl)-2-fluoro-6-[4-(trifluoromethoxy)phenoxy]-3-(trifluoromethyl)benzamide]	0.022 µM
NC(=O)c1cc(NC(=O)c2c(Oc3ccc(OC(F)(F)F)cc3)ccc(C(F)(F)F)c2F)ccn1 [Compound 48, 4-[[2-fluoro-6-[4-(trifluoromethoxy)phenoxy]-3-(trifluoromethyl)benzoyl]amino]pyridine-2-carboxamide]	0.023 µM
NC(=O)c1cccc(NC(=O)c2c(Oc3ccc(F)cc3)ccc(C(F)(F)F)c2F)c1 [Compound 49, N-(3-carbamoylphenyl)-2-fluoro-6-(4-fluorophenoxy)-3-(trifluoromethyl)benzamide]	0.13 µM
NC(=O)c1cc(NC(=O)c2c(Oc3ccc(F)cc3)ccc(C(F)(F)F)c2F)ccn1 [Compound 50, 4-[[2-fluoro-6-(4-fluorophenoxy)-3-(trifluoromethyl)benzoyl]amino]pyridine-2-carboxamide]	0.051 µM
NC(=O)c1cc(NC(=O)c2c(Oc3ccc(OC(F)(F)F)cc3Cl)ccc(C(F)(F)F)c2F)ccn1 [Compound 51]	0.009 µM
COc1cc(OC(F)(F)F)ccc1Oc1ccc(C(F)(F)F)c(F)c1C(=O)Nc1cncc(C(N)=O)c1 [Compound 52, 5-[[2-fluoro-6-[2-methoxy-4-(trifluoromethoxy)phenoxy]-3-(trifluoromethyl)benzoyl]amino]pyridine-3-carboxamide]	0.014 µM
NC(=O)c1cc(NC(=O)c2c(Oc3ccc(OC(F)(F)F)c(Cl)c3)ccc(C(F)(F)F)c2F)ccn1 [Compound 53]	0.017 µM
COc1nc(Cl)ccc1Oc1ccc(C(F)(F)F)c(F)c1C(=O)Nc1ccc(F)c(C(N)=O)c1 [Compound 54, N-(3-Carbamoyl-4-fluoro-phenyl)-6-[(6-chloro-2-methoxy-3-pyridyl)oxy]-2-fluoro-3-(trifluoromethyl)benzamide]	0.007 µM
COc1cc(OC(F)(F)F)ccc1Oc1ccc(F)c(F)c1C(=O)Nc1ccc(F)c(C(N)=O)c1 [Compound 55, N-(3-Carbamoyl-4-fluoro-phenyl)-2,3-difluoro-6-[2-methoxy-4-(trifluoromethoxy)phenoxy]benzamide]	0.018 µM
COc1ccc(Oc2ccc(C(F)(F)F)c(F)c2C(=O)Nc2ccc(F)c(C(N)=O)c2)cn1 [Compound 56, N-(3-carbamoyl-4-fluoro-phenyl)-2-fluoro-6-[(6-methoxy-3-pyridyl)oxy]-3-(trifluoromethyl)benzamide]	0.26 µM
NC(=O)c1cc(NC(=O)c2c(Oc3ccc(OC(F)(F)F)c(F)c3)ccc(C(F)(F)F)c2F)ccn1 [Compound 57, 4-[[2-fluoro-6-[3-fluoro-4-(trifluoromethoxy)phenoxy]-3-(trifluoromethyl)benzoyl]amino]pyridine-2-carboxamide]	0.017 µM
NC(=O)c1cc(NC(=O)c2c(Oc3cccc4c3OCC4)ccc(C(F)(F)F)c2F)ccc1F [Compound 58, N-(3-Carbamoyl-4-fluoro-phenyl)-6-(2,3-dihydrobenzofuran-7-yloxy)-2-fluoro-3-(trifluoromethyl)benzamide]	0.19 µM
Cc1cc(OC(F)(F)F)ccc1Oc1ccc(C(F)(F)F)c(F)c1C(=O)Nc1ccnc(C(N)=O)c1 [Compound 59, 4-[[2-fluoro-6-[2-methyl-4-(trifluoromethoxy)phenoxy]-3-(trifluoromethyl)benzoyl]amino]pyridine-2-carboxamide]	0.007 µM
NC(=O)c1ccc(NC(=O)c2c(Oc3ccc(OC(F)(F)F)cc3)ccc(C(F)(F)F)c2F)cn1 [Compound 60, 5-[[2-fluoro-6-[4-(trifluoromethoxy)phenoxy]-3-(trifluoromethyl)benzoyl]amino]pyridine-2-carboxamide]	0.185 µM
NC(=O)c1cc(NC(=O)c2c(Oc3ccc(OC(F)(F)F)cc3)cnc(C(F)(F)F)c2F)ccn1 [Compound 61, N-(2-Carbamoyl-4-pyridyl)-3-fluoro-5-[4-(trifluoromethoxy)phenoxy]-2-(trifluoromethyl)pyridine-4-carboxamide]	0.038 µM
NC(=O)c1cc(NC(=O)c2c(Oc3ccc(OC(F)(F)F)cc3)cnc(C(F)(F)F)c2F)ccc1F [Compound 62, N-(3-Carbamoyl-4-fluoro-phenyl)-3-fluoro-5-[4-(trifluoromethoxy)phenoxy]-2-(trifluoromethyl)pyridine-4-carboxamide]	0.011 µM
NC(=O)c1cc(NC(=O)c2c(Oc3ccc(OC(F)(F)F)cc3)ccc(F)c2F)ccc1F [Compound 63, N-(3-Carbamoyl-4-fluoro-phenyl)-2,3-difluoro-6-[4-(trifluoromethoxy)phenoxy]benzamide]	0.14 µM
NC(=O)c1cc(NC(=O)c2c(Oc3ccc(OC(F)(F)F)cc3)ccc(F)c2F)ccn1 [Compound 64, 4-[[2,3-Difluoro-6-[4-(trifluoromethoxy)phenoxy]benzoyl]amino]pyridine-2-carboxamide]	0.185 µM
NC(=O)c1ccc(NC(=O)c2c(Oc3ccc(OC(F)(F)F)cc3)ccc(C(F)(F)F)c2F)cc1F [Compound 65, N-(4-Carbamoyl-3-fluoro-phenyl)-2-fluoro-6-[4-(trifluoromethoxy)phenoxy]-3-(trifluoromethyl)benzamide]	0.079 µM
Cc1cc(OC(F)(F)F)ccc1Oc1ccc(C(F)(F)F)c(F)c1C(=O)Nc1ccc(C(N)=O)c(F)c1 [Compound 66, N-(4-carbamoyl-3-fluoro-phenyl)-2-fluoro-6-[2-methyl-4-(trifluoromethoxy)phenoxy]-3-(trifluoromethyl)benzamide]	0.038 µM
COc1nc(Cl)ccc1Oc1ccc(C(F)(F)F)c(F)c1C(=O)Nc1ccc(C(N)=O)c(F)c1 [Compound 67, N-(4-carbamoyl-3-fluoro-phenyl)-6-[(6-chloro-2-methoxy-3-pyridyl)oxy]-2-fluoro-3-(trifluoromethyl)benzamide]	0.042 µM
COc1cc(OC(F)(F)F)ccc1Oc1cnc(C(F)(F)F)cc1C(=O)Nc1ccc(F)c(C(N)=O)c1 [Compound 68, N-(3-Carbamoyl-4-fluoro-phenyl)-5-[2-methoxy-4-(trifluoromethoxy)phenoxy]-2-(trifluoromethyl)pyridine-4-carboxamide]	0.021 µM
